Experimental data reported in ChEMBL document CHEMBL4251635, “Identification and development of benzoxazole derivatives as novel bacterial glutamate racemase inhibitors” (Eur J Med Chem, 2018).
Converted amounts (≈) assume the structure as drawn.

Columns and labels:
[1] = test system: Mycobacterium tuberculosis; assay: Antimycobacterial activity against replicating Mycobacterium tuberculosis H37Rv incubated for 1 week by MABA method; type: functional; details: 168 h
[2] = test system: RAW264.7; assay: Cytotoxicity against mouse RAW264.7 cells assessed as reduction in cell viability at 25 uM after 48 hrs by MTT assay relative to control; type: cell-based; details: raw264.7, 48 h
[3] = test system: Mycobacterium tuberculosis; assay: Antimycobacterial activity against replicating Mycobacterium tuberculosis H37Rv incubated for 1 week in presence of verapamil by MABA method; type: functional; details: 168 h
[4] = test system: Mycobacterium tuberculosis; assay: Antimycobacterial activity against replicating Mycobacterium tuberculosis H37Rv incubated for 1 week in presence of piperine by MABA method; type: functional; details: 168 h
[5] = test system: Mycobacterium tuberculosis; assay: Antibiofilm activity against Mycobacterium tuberculosis H37Rv assessed as log reduction in bacterial load at 10 ug/ml incubated for 1 week by MPN assay; type: functional
[6] = test system: Mycobacterium tuberculosis; assay: Antimycobacterial activity against Mycobacterium tuberculosis H37Rv dormant stage assessed as log reduction in bacterial load at 10 ug/ml incubated for 7 days; type: functional
[7] = test system: Mycobacterium marinum; assay: Antimycobacterial activity against Mycobacterium marinum ATCC BAA-535 infected in zebrafish at 5 mg/kg, po treated for 7 days by MPN assay; type: functional
[8] = target: T1, Glutamate racemase (Mycobacterium tuberculosis (strain ATCC 25618 / H37Rv)) (UniProt P9WPW9); assay: Stabilization of Mycobacterium tuberculosis glutamate racemase assessed as melting temperature by sypro-orange dye-based fluorescence assay (reference value: 43.7 degreeC)
T1 sequence (whole entry): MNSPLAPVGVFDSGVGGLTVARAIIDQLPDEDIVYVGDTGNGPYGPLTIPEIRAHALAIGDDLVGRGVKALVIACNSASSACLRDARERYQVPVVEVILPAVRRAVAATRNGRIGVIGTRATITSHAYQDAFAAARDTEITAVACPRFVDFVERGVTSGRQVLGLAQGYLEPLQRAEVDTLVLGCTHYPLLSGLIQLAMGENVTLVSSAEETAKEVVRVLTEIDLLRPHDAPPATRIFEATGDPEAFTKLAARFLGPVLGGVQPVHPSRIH

[9] = target: T1, Glutamate racemase (Mycobacterium tuberculosis (strain ATCC 25618 / H37Rv)); assay: Stabilization of Mycobacterium tuberculosis glutamate racemase bound to D-glutamate assessed as melting temperature by sypro-orange dye-based fluorescence assay (reference value: 45.1 degreeC)
[10] = test system: Mycobacterium tuberculosis; assay: Bactericidal activity against Mycobacterium tuberculosis H37Rv dormant stage up to 21 days by time kill assay; type: functional; details: 504 h
[11] = test system: Mycobacterium tuberculosis; assay: Bactericidal activity against Mycobacterium tuberculosis H37Rv dormant stage at 5 to 20 uM by time kill assay; type: functional, organism-based; details: TDE = time-dependent effect
[12] = test system: Mycobacterium marinum; assay: Antimycobacterial activity against Mycobacterium marinum ATCC BAA-535 infected in zebrafish at 10 mg/kg, po treated for 7 days by MPN assay; type: functional
[13] = test system: Mycobacterium tuberculosis; assay: Ratio of MIC for Mycobacterium tuberculosis H37Rv to MIC for Mycobacterium tuberculosis H37Rv in presence of verapamil; type: functional
[14] = target: T1, Glutamate racemase (Mycobacterium tuberculosis (strain ATCC 25618 / H37Rv)); assay: Stabilization of Mycobacterium tuberculosis glutamate racemase assessed as change in melting temperature by sypro-orange dye-based fluorescence assay
[15] = target: T1, Glutamate racemase (Mycobacterium tuberculosis (strain ATCC 25618 / H37Rv)); assay: Stabilization of Mycobacterium tuberculosis glutamate racemase bound to D-glutamate assessed as change in melting temperature by sypro-orange dye-based fluorescence assay

| Compound | MIC [1] [µM] | Activity [2] [%] | MIC [3] [µM] | MIC [4] [µM] | also measured |
| --- | --- | --- | --- | --- | --- |
| Cc1ccc2oc(-c3cccc(NC(=S)NCc4ccccc4)c3)nc2c1 | 2.05 (≈ 0.766 µg/mL) | 38.91 | – | – | – |
| Cc1ccc2oc(-c3cccc(NC(=S)Nc4ccc([N+](=O)[O-])cc4)c3)nc2c1 | 61.9 (≈ 25 µg/mL) | 98.1 | 1.91 | 1.91 | – |
| S=C(Nc1ccc(Cl)cc1)Nc1cccc(-c2nc3ccccc3o2)c1 | 63.9 (≈ 24.3 µg/mL) | 22.81 | – | – | – |
| COc1ccc(NC(=O)Nc2cccc(-c3nc4ccccc4o3)c2)cc1 | 69.3 (≈ 24.9 µg/mL) | 17.26 | 69.3 | 69.3 | – |
| S=C(Nc1ccccc1)Nc1cccc(-c2nc3ccccc3o2)c1 | 19.3 (≈ 6.67 µg/mL) | 96.23 | – | – | – |
| Cc1ccc2oc(-c3cccc(NC(=S)Nc4ccc(F)cc4)c3)nc2c1 | 2.16 (≈ 0.815 µg/mL) | 81.92 | – | – | log(activity) [5]: 0.8; log(activity) [6]: 2.5 |
| CO[C@H]1/C=C/O[C@@]2(C)Oc3c(C)c(O)c4c(O)c(c(/C=N/N5CCN(C)CC5)c(O)c4c3C2=O)NC(=O)/C(C)=C\C=C\[C@H](C)[C@H](O)[C@@H](C)[C@@H](O)[C@@H](C)[C@H](OC(C)=O)[C@@H]1C [RIFAMPIN] | 0.21 (≈ 0.173 µg/mL) | – | 0.21 | 0.21 | log(activity) [5]: 1.5; log(activity) [6]: 0.8 |
| O=C(NCc1ccccc1)Nc1cccc(-c2nc3ccccc3o2)c1 | 72.8 (≈ 25 µg/mL) | 2.12 | – | – | – |
| COc1c(N2C[C@@H]3CCCN[C@@H]3C2)c(F)cc2c(=O)c(C(=O)O)cn(C3CC3)c12 [MOXIFLOXACIN] | – | – | – | – | log(activity) [5]: 2; log(activity) [7]: 2.4; log(activity) [6]: 0.3 |
| Cc1ccc2oc(-c3cccc(NC(=O)Nc4ccc(F)cc4)c3)nc2c1 | 69.3 (≈ 25.1 µg/mL) | 3.17 | – | – | – |
| O=C(Nc1ccccc1)Nc1cccc(-c2nc3ccccc3o2)c1 | 75.1 (≈ 24.7 µg/mL) | 48.38 | – | – | – |
| Cc1ccc2oc(-c3cccc(NC(=S)Nc4ccc(Cl)cc4)c3)nc2c1 | 8.72 (≈ 3.43 µg/mL) | 55.82 | 2.01 | 2.01 | Tm [8]: 49.8 °C; Tm [9]: 51.9 °C; MBC [10]: 25.4 µM (≈ 10 µg/mL); Activity [11]: Tde; log(activity) [5]: 2.4; log(activity) [12]: 3.4; log(activity) [6]: 2.5; Ratio [13]: 4 |
| Cc1ccc(NC(=S)Nc2cccc(-c3nc4cc(C)ccc4o3)c2)cc1 | 77 (≈ 28.8 µg/mL) | 2.12 | 77 | 77 | – |
| O=C(Nc1ccc(F)cc1)Nc1cccc(-c2nc3ccccc3o2)c1 | 72.1 (≈ 25.1 µg/mL) | 2.98 | 72.1 | 72.1 | – |
| O=C(Nc1ccc([N+](=O)[O-])cc1)Nc1cccc(-c2nc3ccccc3o2)c1 | 67 (≈ 25.1 µg/mL) | 95.11 | – | – | – |
| O=C(Nc1ccc(Cl)cc1)Nc1cccc(-c2nc3ccccc3o2)c1 | 68.3 (≈ 24.9 µg/mL) | 38.91 | – | – | – |
| S=C(NCc1ccccc1)Nc1cccc(-c2nc3ccccc3o2)c1 | 69.2 (≈ 24.9 µg/mL) | 47.21 | 2.21 | 2.21 | – |
| COc1ccc(NC(=O)Nc2cccc(-c3nc4cc(C)ccc4o3)c2)cc1 | 67.9 (≈ 25.4 µg/mL) | 11.09 | – | – | – |
| Cc1ccc2oc(-c3cccc(NC(=O)Nc4ccccc4)c3)nc2c1 | 72.9 (≈ 25 µg/mL) | 10.15 | 72.9 | 72.9 | – |
| O=[N+]([O-])c1ccc(NC(=S)Nc2cccc(-c3nc4ccccc4o3)c2)cc1 | 2.09 (≈ 0.816 µg/mL) | 88.12 | – | – | log(activity) [5]: 0.8; log(activity) [6]: 2.5 |
| Cc1ccc2oc(-c3cccc(NC(=O)NCc4ccccc4)c3)nc2c1 | – | – | – | – | ΔTm [14]: 3.2 °C; ΔTm [15]: 2 °C |
| CC(C)c1ccc(NC(=O)Nc2cccc(-c3nc4ccccc4o3)c2)cc1 | 81.2 (≈ 30.2 µg/mL) | 3.52 | – | – | – |
| Cc1ccc(NC(=S)Nc2cccc(-c3nc4ccccc4o3)c2)cc1 | 69.5 (≈ 25 µg/mL) | 99.14 | – | – | – |
| CC[C@@H](CO)NCCN[C@@H](CC)CO [ETHAMBUTOL] | 7.89 (≈ 1.61 µg/mL) | – | 3.82 | 3.82 | – |
| Cc1ccc(NC(=O)Nc2cccc(-c3nc4ccccc4o3)c2)cc1 | 36.2 (≈ 12.4 µg/mL) | 1.09 | 36.2 | 36.2 | – |
| NNC(=O)c1ccncc1 [ISONIAZID] | 0.78 (≈ 0.107 µg/mL) | – | 0.78 | 0.78 | log(activity) [5]: 1.2; log(activity) [7]: 2.5; log(activity) [6]: 1.4 |
| Cc1ccc2oc(-c3cccc(NC(=O)Nc4ccc(Cl)cc4)c3)nc2c1 | 66.3 (≈ 25.1 µg/mL) | 1.09 | – | – | – |
| Cc1ccc2oc(-c3cccc(NC(=S)Nc4ccccc4)c3)nc2c1 | 69.6 (≈ 25 µg/mL) | 87.32 | 8.69 | 8.69 | – |
| Fc1ccc(NC(=S)Nc2cccc(-c3nc4ccccc4o3)c2)cc1 | 4.37 (≈ 1.59 µg/mL) | 96.02 | – | – | MBC [10]: 27.5 µM (≈ 9.98 µg/mL); log(activity) [5]: 0.4; log(activity) [6]: 0.2 |
